A short description of data set [1]: DP IV-catalyzed truncation of peptides, half-life by MALDI-TOF MS. The data set is classed as biochemical. As for the experimental part: (§1) In particular, the capability of purified DP IV from human, from porcine kidney, of recombinant human DP IV and the DP IV activity of the human serum to truncate the peptides of the GRF family were analyzed.
(§2) 250 single laser-shot spectra were accumulated.

For data set [2], the target named is T1, recombinant human DP IV, mutation W629A (Homo sapiens, UniProt P27487, W629A). Briefly: Kinetic characterization of substrate hydrolysis (Km, kcat). The settings on record: mu 16 DP IV (W629A).
The target of data set [3] is T2, recombinant human DP IV, mutation R560A (Homo sapiens, UniProt P27487, R560A). Described as above. Conditions: mu 15 DP IV (R560A).
The target of data set [4] is T3, recombinant human DP IV, wild type (Homo sapiens, UniProt P27487).
T3 construct: His6 (N); made in house; host or cells: Pichia pastoris X-33 (vector pPICαC, secreted into the medium)
The data set is described as above. The data set is classed as biochemical. Conditions: rh wt DP IV.

Data set [5] in a line: Stability in biological fluids (human serum or plasma).
The test system of data set [6] is DP IV. Put plainly: DP IV-catalyzed peptide truncation test with or without preincubation with effector peptide. In kind it is biochemical. The settings on record: for affinity of larger oligopeptides such as GIP, VIP, glucagon / binding and hydrolysis of small dipeptide substrates: DP IV preincubated with the peptide. On the procedure: as §2
In order to investigate directly the influence of the test compounds TFTSDY, TFTDDY and H-Ser-D-Glu-Thr-Gly-D-Val-D-Lys-D-Val-OH on the DP IV-catalyzed peptide hydrolysis the MALDI-TOF assay was used.
As described before (determination of t1/2) DP IV and the test compounds were preincubated and the reaction was started by adding the enzyme/hexapeptide mixture to substrate/buffer mix. The control reaction mixture consisted of buffer, enzyme and substrate. From the curves of the first order exponential the initial rate (vi) for the control and the reversible inhibited reaction was calculated.

For data set [7], the system named is DP IV. Briefly: DP IV-catalyzed hydrolysis, determination of Km. In kind it is biochemical.
Data set [8] concerns the target T3, recombinant human DP IV, wild type. Put plainly: Ki in competition to standard substrate GP-4NA. The settings on record: rh wt DP IV, competition to GP-4NA. The data set is classed as biochemical. As for the experimental part:
(§3) In order to measure the inhibition constant Ki a photometric assay was used The peptides were measured as competitors of the standard substrate GP-4-Nitroanilide. Three different substrate concentrations (0.4 mM to 0.05 mM) were combined with 8 different competitor concentrations (0.5 mM to 2 μM). […] Experiments were carried out under standard conditions: 30° C. in pH 7.6 40 mM HEPES (Sigma-Aldrich) buffer. Nitroaniline production was monitored using a HTS 7000+ microplate reader (PerkinElmer, Überlingen, Germany).

In data set [9] the target is T2, recombinant human DP IV, mutation R560A. Briefly: Ki in competition to standard substrate GP-4NA. The data set is classed as biochemical. The arrangement: His6 (N); made in house; host or cells: Pichia pastoris X-33 (vector pPICαC, secreted). The settings on record: mu 15 DP IV (R560A), competition to GP-4NA. On the procedure: as §3
Data set [10] addresses T1, recombinant human DP IV, mutation W629A. Briefly: Ki in competition to standard substrate GP-4NA. Also on record: His6 (N); made in house; host or cells: Pichia pastoris X-33 (vector pPICαC, secreted). The data set is classed as biochemical. Conditions: mu 16 DP IV (W629A), competition to GP-4NA. On the procedure: as §3
The target of data set [11] is T4, porcine kidney DP IV, wild type (Sus scrofa, UniProt P22411).
T4 construct: the DP IV-protein was released from the membrane by an 18 h autolysis step at 30° C; from tissue; host or cells: porcine kidney cortex
Put plainly: Kinetic characterization of substrate hydrolysis (Km). In kind it is biochemical. The settings on record: p wt DP IV.

For data set [12], the target named is T4, porcine kidney DP IV, wild type. Put plainly: Ki in competition to standard substrate GP-4NA. The settings on record: p wt DP IV; competition to GP-4NA. In kind it is biochemical. On the procedure: (§4) In order to measure the inhibition constant Ki a photometric assay was used The peptides were measured as competitors of the standard substrate GP-4-Nitroanilide. Three different substrate concentrations (0.4 mM to 0.05 mM) were combined with 8 different competitor concentrations (0.5 mM to 2 μM). The reaction was started by addition of 3.5 nM DP IV. Experiments were carried out under standard conditions: 30° C. in pH 7.6 40 mM HEPES (Sigma-Aldrich) buffer. Nitroaniline production was monitored using a HTS 7000+ microplate reader (PerkinElmer, Überlingen, Germany). The Ki-values were calculated via non-linear regression using the enzyme kinetic program Grafit 4.016 (Erithacus Ltd, UK).

For data set [13], the system named is DP IV. Briefly: DP IV-catalyzed truncation of peptides, half-life by MALDI-TOF MS. Conditions: for hydrolysis by DP IV: GIP-fragments of different chain lengths. The data set is classed as biochemical. As for the experimental part:
as §1, §2

The target of data set [14] is DP IV. Put plainly: Photometric Ki assay, competition with standard substrate GP-4-Nitroanilide. In kind it is biochemical. The settings on record: read-out: Ki, influence on GP-4-Nitroanilide hydrolysis. As for the experimental part: as §4
For a reversible competitive inhibition is to assumed: […]

Where [15] appears, read: preincubation with 160 μM TFTSDY.

The source of these data is patent US7816325B2, “Secondary binding site of dipeptidyl peptidase IV (DP IV)” (OSI Pharmaceuticals, Inc., priority 2003, dated 2010).

Like-named read-outs stand apart in the source and are kept apart here. Where a SMILES comes first, the peptide text is derived from it. [ ]: non-standard residue; d: D form. The star is where a group is joined. AMC = Cc1cc(=O)oc2cc(N*)ccc12

By half-life is commonly meant the time needed for the level to fall by half in the phase considered. For orientation: Km means the concentration of substrate that gives half-maximal velocity. A word on the kcat: it is the number of substrate molecules converted per active site and unit of time at saturation. As a reminder, the Ki is a measure of affinity in units of concentration, obtained from inhibition or displacement.

T1 sequence (P27487 37-766 W629A): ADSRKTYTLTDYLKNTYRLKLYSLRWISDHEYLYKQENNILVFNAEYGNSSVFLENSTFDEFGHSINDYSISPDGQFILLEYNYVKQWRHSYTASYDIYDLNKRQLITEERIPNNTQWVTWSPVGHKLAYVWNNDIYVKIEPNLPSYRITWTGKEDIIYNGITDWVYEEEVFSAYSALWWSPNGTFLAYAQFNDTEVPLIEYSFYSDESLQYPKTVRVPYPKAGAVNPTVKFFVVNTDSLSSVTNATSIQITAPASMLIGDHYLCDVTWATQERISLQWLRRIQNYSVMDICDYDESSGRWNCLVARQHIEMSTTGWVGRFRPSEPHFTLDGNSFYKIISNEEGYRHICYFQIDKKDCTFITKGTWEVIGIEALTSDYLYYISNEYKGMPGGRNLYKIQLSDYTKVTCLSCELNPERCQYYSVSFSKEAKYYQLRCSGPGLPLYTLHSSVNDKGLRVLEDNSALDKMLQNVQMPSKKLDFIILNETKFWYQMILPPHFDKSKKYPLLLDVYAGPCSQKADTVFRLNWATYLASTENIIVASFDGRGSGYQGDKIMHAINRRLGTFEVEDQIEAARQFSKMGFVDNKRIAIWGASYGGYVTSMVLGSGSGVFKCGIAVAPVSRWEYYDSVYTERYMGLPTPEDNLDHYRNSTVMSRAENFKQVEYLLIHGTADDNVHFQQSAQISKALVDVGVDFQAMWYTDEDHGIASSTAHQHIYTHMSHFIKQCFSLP
T2 sequence (P27487 37-766 R560A): as the sequence (P27487 37-766 W629A) above, with R524A, A593W counted along it
T3 sequence (P27487 37-766): as the sequence (P27487 37-766 W629A) above, with A593W counted along it
T4 sequence (P22411 38-766 limits assumed): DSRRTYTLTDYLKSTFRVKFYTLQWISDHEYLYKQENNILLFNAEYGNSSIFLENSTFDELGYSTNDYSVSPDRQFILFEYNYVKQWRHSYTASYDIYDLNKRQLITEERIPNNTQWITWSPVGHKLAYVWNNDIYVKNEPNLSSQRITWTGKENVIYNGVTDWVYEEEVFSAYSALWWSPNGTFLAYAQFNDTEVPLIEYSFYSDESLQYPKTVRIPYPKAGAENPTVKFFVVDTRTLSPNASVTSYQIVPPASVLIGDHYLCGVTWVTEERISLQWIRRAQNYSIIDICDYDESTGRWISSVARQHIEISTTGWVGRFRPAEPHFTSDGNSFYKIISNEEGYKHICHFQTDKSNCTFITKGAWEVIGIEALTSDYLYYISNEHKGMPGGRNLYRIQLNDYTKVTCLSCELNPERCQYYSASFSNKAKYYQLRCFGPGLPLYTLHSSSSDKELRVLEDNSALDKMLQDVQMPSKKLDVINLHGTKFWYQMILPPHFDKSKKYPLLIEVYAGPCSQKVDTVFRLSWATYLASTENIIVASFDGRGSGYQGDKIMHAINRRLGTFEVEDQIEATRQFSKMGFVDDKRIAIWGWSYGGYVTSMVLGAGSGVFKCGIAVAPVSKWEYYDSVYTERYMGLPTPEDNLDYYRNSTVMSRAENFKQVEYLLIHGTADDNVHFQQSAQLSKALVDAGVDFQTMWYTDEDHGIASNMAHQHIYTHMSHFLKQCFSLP

Turning to `C[C@H](NC(=O)[C@@H](N)Cc1ccc(O)cc1)C(=O)N[C@@H](CCC(=O)O)C(=O)NCC(=O)N[C@H](C(=O)N[C@@H](Cc1ccccc1)C(=O)O)[C@@H](C)O` [GIP1-6, YAEGTF] (H-YAEGTF-OH; N-terminus and C-terminus assumed), in data set [1] (bioactive peptides which are substrates for DP IV, read-out: Truncation half life), the half-life was below 0.125 h.

Take `Cc1cc(=O)oc2cc(NC(=O)[C@@H]3CCCN3C(=O)CN)ccc12` [Gly-Pro-AMC, H-Gly-Pro-AMC] (H-Gly-Pro-{AMC}): the Michaelis-Menten constant (Km) in data set [2] worked out at 50.2 µM; in [3] it was 46.6 µM; in [4], 35.3 µM. Also, the results for the turnover number (kcat) in data set [2], in data set [3] and in data set [4] were 1.44e+06 s⁻¹, 1e+06 s⁻¹ and 1.66e+06 s⁻¹, respectively.

On to `Cc1cc(=O)oc2cc(NC(=O)[C@H](CO)NC(=O)CN)ccc12` [Gly-Ser-AMC] (H-Gly-Ser-{AMC}), for which the Km entry in [2] was “Not hydrolyzed”; in data set [3], “Not hydrolyzed”; in data set [4], 440 µM.

`CC(C)[C@@H](NC(=O)[C@@H](CCCCN)NC(=O)[C@H](NC(=O)CNC(=O)[C@@H](NC(=O)[C@@H](CCC(=O)O)NC(=O)[C@@H](N)CO)[C@@H](C)O)C(C)C)C(=O)O` [H-Ser-D-Glu-Thr-Gly-D-Val-D-Lys-D-Val-OH] (H-S[dE]TG[dV][dK][dV]-OH): the “stability in biological fluids” value in data set [5] is “not enzymatically degraded”. Further, in the data set with DP IV [6], the “affinity of larger oligopeptides such as GIP, VIP, glucagon” value is recorded as “considerably reduced”; the “binding and hydrolysis of small dipeptide substrates” value is “only slightly influenced”. For the same compound, the “improving the substrate specificity of DP IV” value with DP IV [6] (compared to control experiments without the heptapeptide) is reported as “very effective”.

For `Cc1cc(=O)oc2cc(NC(=O)CNC(=O)[C@@H](N)Cc3c[nH]cn3)ccc12` [His-Gly-AMC] (H-His-Gly-{AMC}), the Michaelis-Menten constant (Km) in the data set with DP IV [7] amounted to 410 µM.

Take `CC(C)C[C@H](N)C(=O)N1CCSC1` [Leu-Thia-Fum]: the inhibition constant (Ki) in data set [8] (read-out: Ki) is 0.0658 µM; in data set [9] (read-out: Ki), 0.0681 µM; in data set [10] (read-out: Ki), 0.0657 µM; in data set [12], 0.0729 µM. Further, the Michaelis constant (Km) was 59.8 µM in data set [11] and 42.6 µM in data set [4].

Regarding `C[C@@H](O)[C@H](NC(=O)CNC(=O)[C@H](CCC(=O)O)NC(=O)[C@H](CO)NC(=O)[C@@H](N)Cc1ccc(O)cc1)C(=O)N[C@@H](Cc1ccccc1)C(=O)O` [S^2GIP1-6] (H-YSEGTF-OH; N-terminus and C-terminus assumed), the inhibition constant Ki result in data set [8], in data set [9] and in [10] was “no inhibition” in each case. This compound displayed a half-life in data set [1] of 1.32 h. The “hydrolysis by DP IV” value in the data set on DP IV [13] is listed as “truncated”.

In the case of `C[C@@H](O)[C@H](N)C(=O)N[C@@H](Cc1ccccc1)C(=O)N[C@H](C(=O)N[C@@H](CC(=O)O)C(=O)N[C@@H](CC(=O)O)C(=O)N[C@@H](Cc1ccc(O)cc1)C(=O)O)[C@@H](C)O` [TFTDDY] (H-TFTDDY-OH), the “stability in biological fluids” value in data set [5] is recorded as “instable”.

Regarding `C[C@@H](O)[C@H](N)C(=O)N[C@@H](Cc1ccccc1)C(=O)N[C@H](C(=O)N[C@@H](CO)C(=O)N[C@@H](CC(=O)O)C(=O)N[C@@H](Cc1ccc(O)cc1)C(=O)O)[C@@H](C)O` [TFTSDY] (H-TFTSDY-OH; N-terminus and C-terminus assumed), the Ki on DP IV [14] was 710 µM; in data set [8], “no inhibition”; in [9], “no inhibition”; in data set [10], “no inhibition”. For the same compound, the “stability in biological fluids” value in [5] was “instable”. Further, the “half-lifes of GIP, Glucagon, PACAP-27 and PACAP-38” value with DP IV [6] (DP IV (porcine and recombinant human) catalyzed peptide truncation test, FIG. 16) is recorded as “prolongation”. In addition, the “affinity of larger oligopeptides such as GIP, VIP, glucagon” value with DP IV [6] was “considerably reduced”. Also, the “binding and hydrolysis of small dipeptide substrates” value in the data set on DP IV [6] was “only slightly influenced”. Also, the “half-lives of GIP and glucagon in presence of DP IV” value with DP IV [6] (setting [15]) is “prolonged”. Also, the “incubation of Rantes1-15 and DP IV with or without the hexapeptide” value with DP IV [6] (setting [15]) is on record as “No differences”.

For the compound `C[C@H](NC(=O)[C@@H](N)Cc1ccc(O)cc1)C(=O)N[C@@H](CCC(=O)O)C(=O)N[C@@H](CO)C(=O)N[C@H](C(=O)N[C@@H](Cc1ccccc1)C(N)=O)[C@@H](C)O` [YAESTF amide] (H-YAESTF-NH2; N-terminus assumed), the inhibition constant Ki in data set [8] (read-out: Ki) was 0.0351 µM.

For G^2GIP1-6: GIP-fragment analog (YAEGTF), in the data set on DP IV [13], the Truncation half life entry was “no degradation” and the “hydrolysis by DP IV” value is “not hydrolyzed”.

With Glucagon, the Km in the data set on DP IV [7] came out at 3.8 µM.

Consider “His^1-Ser^2-NPY: NPY analog, full-length substrate”, for which the Km with DP IV [7] amounted to 68 µM.

V^2GIP1-6: GIP-fragment analog (YAEGTF): in the data set with DP IV [13], the Truncation half life result is reported as “no degradation” and the “hydrolysis by DP IV” value was “not hydrolyzed”.

As to “V^2GIP(1-4): GIP-fragment analog, test compound of Table 5 (YAEGTF)”, the Ki entry in [8], in [9] and in [10] was “no inhibition” each time.

[Gly]^2-glucagon: glucagon analog: in the data set with DP IV [7], the Km stood at 22 µM.
